The source of these data is patent US4683239A, “3-diphenyl substituted octahydroindolizine analgesic compounds” (McNeilab, Inc., priority 1986, dated 1987).

Counter-ions that a name gives are not always drawn.

The test has as its system mice. Put plainly: Mouse Acetylcholine-Bromide-Induced Abdominal Constriction Assay. It counts as in vivo. Conditions: oral (p.o.), 30 min before i.p. 5.5 mg/kg acetylcholine bromide; for ED50: Mus musculus, po, 0.5 h, dose which inhibits writhing by 50%; for % Inhibition of writhing (% analgesia): @ 30 mg/kg, printed in ED50 column. The method, then: […]., 32: 295-310, 1968, with minor modifications was used to assess analgesic potency of the compounds of formula (I). The test drugs or appropriate vehicle were administered orally (p.o.) and 30 minutes later the animals received an intraperitoneal (i.p.) injection of 5.5 mg/kg acetylcholine bromide (Matheson, Coleman and Bell, East Rutherford, NJ). The mice were then placed in groups of four into glass bell jars and observed for a ten minute observation period for the occurrence of a writhe (defined as a wave of constriction and elongation passing caudally along the abdominal wall, accompanied by a twisting of the trunk and followed by extension of the hind limbs). The percent inhibition of writhing (equated to % analgesia) was calculated as follows: The % Inhibition of writhing, i.e., % analgesia is equal to the difference between the No. of control animals writhing and the No. of drug-treated animals writhing times 100 divided by the No. of control animals writhing. At least 20 animals were used for control and in each of the drug treated groups. Four doses were used to determine each dose response curve and ED50 (that dose which inhibits writhing by 50%). The ED50 values and their 95% fiducial limits were determined by a computer assisted probit analysis.
In general terms: In writhing tests, fewer writhes than in controls are read as antinociception.

Broadly, the ED50 is the midpoint of the dose-response relation. Read a low ED50 as an effect at a small dose. With `Cl.c1ccc(CCc2ccc([C@@H]3CC[C@@H]4CCCCN43)cc2)cc1` (relative stereo) [Example 6, trans-Octahydro-3-[4-(2-phenylethyl)phenyl]indolizine Hydrochloride], the ED50 is 6.9 mg/kg.

With `CC(=O)Nc1cccc(/C=C\c2ccc([C@H]3CC[C@H]4CCCCN43)cc2)c1` (relative stereo) [Example 4], it took a dose of 6.9 mg/kg to reach the 50% effect level (ED50).

For `Cl.c1ccc(COc2ccc([C@@H]3CC[C@@H]4CCCCN43)cc2)cc1` (relative stereo) [Example 3b, trans-Octahydro-3-[4-(phenylmethoxy)phenyl]indolizine Hydrochloride], the ED50 came to 16.8 mg/kg.

`Cc1ccc(Sc2ccc(C3CCC4CCCCN43)cc2)cc1.Cl` (stereo not drawn) [Example 7, 3-[4-[(4-Methylphenyl)thio]phenyl]octahydroindolizine Hydrochloride]: the ED50 was in the range of 20 to 30 mg/kg.

Regarding `CC(=O)Nc1cccc(Sc2ccc([C@H]3CC[C@H]4CCCCN43)cc2)c1` (relative stereo) [Example 11, N-[3-[[4-trans-Octahydro-3-indolizinyl)phenyl]thio]phenyl]acetamide Hydrochloride Hydrate], the “% Inhibition of writhing (% analgesia)” value was determined as 73%.

`CC(=O)Nc1cccc(C#Cc2ccc([C@@H]3CC[C@@H]4CCCCN43)cc2)c1` (relative stereo) [Example 2, N-[3-[[4-(trans-Octahydro-3-indolizinyl)phenyl]ethynyl]phenyl]acetamide] showed an ED50 of 17.6 mg/kg.

As for `CC(=O)Nc1ccc(Sc2ccc([C@@H]3CC[C@@H]4CCCCN43)cc2)c(Cl)c1.Cl` (relative stereo) [Example 13e], the “% Inhibition of writhing (% analgesia)” value is 46%.

The molecule `CC(=O)Nc1ccc(Oc2ccc([C@H]3CC[C@H]4CCCCN43)cc2)cc1` (relative stereo) [Example 12f, N-[4-[4-trans-Octahydro-3-indolizinyl)phenoxy]phenylacetamide] displayed an ED50 not above 5 mg/kg.

On to `CC(=O)Nc1cccc(CCc2ccc([C@@H]3CC[C@@H]4CCCCN43)cc2)c1` (relative stereo) [Example 9, N-[3-[2-[4-(trans-Octahydro-3-indolizinyl)phenyl]ethyl]phenyl]acetamide], for which the “% Inhibition of writhing (% analgesia)” value is on record as 86%.
